Measurements published in publication PMC12583694, “RNF114 and RNF166 exemplify reader-writer E3 ligases that extend K11 polyubiquitin onto sites of MARUbylation” (The EMBO Journal, 2025).

Tests used:
[1] = target: T1, RNF114 (Homo sapiens, UniProt Q9Y508); test: fluorescence polarization; format: binding; details: labelled compound; unreliable (estimated, saturation not reached); pH 7.4, 150 mM NaCl, 0.1 mg/mL BSA, 1 mM TCEP, 22 °C
T1 construct: full-length RNF114, N-terminal His-3C fusion (pOPIN-B), expressed in E. coli Rosetta; cobalt resin and gel filtration

[2] = target: T2, AF1521 macrodomain (GST-AF1521) (Archaeoglobus fulgidus, UniProt O28751); test: fluorescence polarization; details: labelled compound; pH 7.4, 150 mM NaCl, 0.1 mg/mL BSA, 1 mM TCEP, 22 °C; one-site total binding fit
T2 construct: gene AF_1521; GST-AF1521 plasmid (gift from M. Nielsen), purified as previously reported
T2 sequence (O28751 1-192): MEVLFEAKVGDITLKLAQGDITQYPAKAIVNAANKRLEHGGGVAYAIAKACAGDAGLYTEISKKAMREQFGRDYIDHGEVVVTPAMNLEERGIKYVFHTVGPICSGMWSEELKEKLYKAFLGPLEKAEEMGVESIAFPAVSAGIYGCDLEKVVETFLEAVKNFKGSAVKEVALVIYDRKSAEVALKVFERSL

T1 sequence (Q9Y508 whole entry, the tested form may be a part): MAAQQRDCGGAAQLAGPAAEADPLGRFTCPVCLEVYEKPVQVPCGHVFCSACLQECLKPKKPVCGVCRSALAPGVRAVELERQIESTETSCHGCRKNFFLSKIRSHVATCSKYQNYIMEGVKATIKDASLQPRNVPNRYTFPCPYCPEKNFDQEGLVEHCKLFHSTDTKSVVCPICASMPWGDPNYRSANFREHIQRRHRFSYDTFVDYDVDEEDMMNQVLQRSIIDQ

Kd [1]: ~ 40 µM
Kd [2]: 1200 nM
Substance: ADPr^T
